From patent publication US6737383B1, “Herbicidal oxadiazolidines” (priority 1999, dated 2004)

Tests used:
cocklebur = test: Test B pre/postemergence cocklebur; format: in vivo, Xanthium strumarium
Procedure, shortened: (§1)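 Herbicidal effect was estimated by eye on a ten-point control scale after plants spent twelve to sixteen days in a greenhouse following soil or foliar treatment. Foliar sprays targeted plants at one to four leaves; all doses were formulated in a non-phytotoxic solvent with surfactant.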

rape = test: Test B pre/postemergence rape; format: in vivo, Brassica napus
Procedure, shortened: as §1

wheat = test: Test B pre/postemergence wheat; format: in vivo, Triticum aestivum
Procedure, shortened: as §1

duck salad = test: Test B flood test duck salad; format: in vivo, Heteranthera limosa; settings: for Plant response rating, Ducksalad: scale 0 to 10, 0 is no effect, 10 is complete control; for Ducksalad plant response rating: scale of 0 to 10 where 0 is no effect and 10 is complete control
Procedure, shortened: (§2)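 Plants were grown to the 2-leaf stage before treatment with test chemical, then held in a greenhouse for twelve to sixteen days. Injury was visually rated against untreated controls on a 0–10 scale, where 0 is no effect and 10 is complete control.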

wild oat = test: Test B pre/postemergence wild oat; format: in vivo, Avena fatua
Procedure, shortened: as §1

surinam grass = test: Test B pre/postemergence surinam grass; format: in vivo, Brachiaria decumbens
Procedure, shortened: as §1

bedstraw = test: Test B pre/postemergence bedstraw; format: in vivo, Galium aparine; settings: Postemergence, Rate 500 g/ha; scale of 0 to 10 where 0 is no effect and 10 is complete control
Procedure, shortened: as §1

velvetleaf = test: Test B pre/postemergence velvetleaf; format: in vivo, Abutilon theophrasti
Procedure, shortened: as §1

bamyardgrass = test: Test B flood test barnyardgrass; format: in vivo, Echinochloa crus-galli; settings: for Plant response rating, Barnyardgrass: scale 0 to 10, 0 is no effect, 10 is complete control; for Barnyardgrass plant response rating: scale of 0 to 10 where 0 is no effect and 10 is complete control
Procedure, shortened: as §2

corn = test: Test B pre/postemergence corn; format: in vivo, Zea mays
Procedure, shortened: as §1

soybean = test: Test B pre/postemergence soybean; format: in vivo, Glycine max
Procedure, shortened: as §1

purple nutsedge = test: Test B pre/postemergence purple nutsedge; format: in vivo, Cyperus rotundus
Procedure, shortened: as §1

sugar beet = test: Test B pre/postemergence sugar beet; format: in vivo, Beta vulgaris
Procedure, shortened: as §1

rice = test: Test B flood test rice; format: in vivo, Oryza sativa; settings: for Rice plant response rating: scale of 0 to 10 where 0 is no effect and 10 is complete control
Procedure, shortened: as §2

crabgrass = test: Test B pre/postemergence crabgrass; format: in vivo, Digitaria sanguinalis
Procedure, shortened: as §1

smallflower flatsedge = test: Test B flood test smallflower flatsedge; format: in vivo, Cyperus difformis; settings: for S. Flatsedge plant response rating: scale of 0 to 10 where 0 is no effect and 10 is complete control
Procedure, shortened: as §2

blackgrass = test: Test B pre/postemergence blackgrass; format: in vivo, Alopecurus myosuroides
Procedure, shortened: as §1

[1] = Postemergence, Rate 125 g/ha, scale 0 to 10, 0 is no effect, 10 is complete control
[2] = Postemergence, Rate 250 g/ha, scale 0 to 10, 0 is no effect, 10 is complete control
[3] = Postemergence, Rate 500 g/ha, scale of 0 to 10 where 0 is no effect and 10 is complete control
[4] = Preemergence, Rate 62 g/ha, scale 0 to 10 (0 no effect, 10 complete control)
[5] = Preemergence, Rate 125 g/ha, scale of 0 to 10 where 0 is no effect and 10 is complete control
[6] = Preemergence, Rate 250 g/ha, scale 0 to 10, 0 is no effect, 10 is complete control
[7] = Preemergence, Rate 500 g/ha, scale 0 to 10, 0 is no effect, 10 is complete control
[8] = Rate 62 g/ha, Postemergence, scale of 0 to 10 where 0 is no effect and 10 is complete control
[9] = Postemergence (flood test), Rate 125 g/ha
[10] = Postemergence section (flood test species), Rate 500 g/ha
[11] = Rate 62 g/ha, Postemergence (flood test species)
[12] = flood test species, listed under Postemergence, Rate 250 g/ha
[13] = Preemergence, Rate 250 g/ha, scale of 0 to 10 where 0 is no effect and 10 is complete control
[14] = flood test species, listed under Postemergence, Rate 250 g/ha, scale 0 to 10, 0 is no effect, 10 is complete control

With `CC(C)N(C(=O)n1oc(=O)n(CCCC(F)(F)F)c1=O)c1ccc(F)cc1` [Compound 398] the “Plant response rating, Cocklebur” value (cocklebur; [1]) was 0, the “Plant response rating, Cocklebur” value (cocklebur; [2]) was 0 and the “Cocklebur plant response rating” value (cocklebur; [3]) was 0. The “Plant response rating, Cocklebur” value (cocklebur; [4]) was 0, the “Plant response rating, Cocklebur” value (cocklebur; [5]) was 0 and the “Cocklebur plant response rating” value (cocklebur; [6]) was 0. For the same compound, the “Cocklebur plant response rating” value (cocklebur; [7]) was 0, the “Cocklebur plant response rating” value (cocklebur; [8]) was 0 and the “Plant response rating, Rape” value (rape; [2]) was 2. The “Rape plant response rating” value (rape; [3]) was 2, the “Plant response rating, Rape” value (rape; [4]) was 0 and the “Plant response rating, Rape” value (rape; [5]) was 3. The “Rape plant response rating” value (rape; [6]) was 8, the “Rape plant response rating” value (rape; [7]) was 10 and the “Rape plant response rating” value (rape; [8]) was 0. For the same compound, the “Wheat plant response rating” value (wheat; [3]) was 3, the “Plant response rating, Wheat” value (wheat; [4]) was 0 and the “Plant response rating, Wheat” value (wheat; [5]) was 0. For the same compound, the “Wheat plant response rating” value (wheat; [6]) was 0, the “Wheat plant response rating” value (wheat; [7]) was 2 and the “Wheat plant response rating” value (wheat; [8]) was 0. The “Plant response rating, Ducksalad” value (duck salad; [9]) was 0, the “Ducksalad plant response rating” value (duck salad; [10]) was 0 and the “Ducksalad plant response rating” value (duck salad; [11]) was 0. The “Plant response rating, Ducksalad” value (duck salad; [12]) was 0, the “Wild oats plant response rating” value (wild oat; [3]) was 0 and the “Plant response rating, Wild oats” value (wild oat; [4]) was 0. For the same compound, the “Plant response rating, Wild oats” value (wild oat; [5]) was 3, the “Wild oats plant response rating” value (wild oat; [6]) was 3 and the “Wild oats plant response rating” value (wild oat; [7]) was 8. The “Wild oats plant response rating” value (wild oat; [8]) was 0, the “Plant response rating, B. signalgrass” value (surinam grass; [1]) was 0 and the “Plant response rating, B. signalgrass” value (surinam grass; [2]) was 2. The “B. signalgrass plant response rating” value (surinam grass; [3]) was 8, the “Plant response rating, B. signalgrass” value (surinam grass; [4]) was 0 and the “Plant response rating, B. signalgrass” value (surinam grass; [5]) was 2. The “B. signalgrass plant response rating” value (surinam grass; [13]) was 6, the “B. signalgrass plant response rating” value (surinam grass; Preemergence, Rate 500 g/ha, scale of 0 to 10 where 0 is no effect and 10 is complete control) was 10 and the “B. signalgrass plant response rating” value (surinam grass; [8]) was 0. For the same compound, the “Bedstraw plant response rating” value (bedstraw) was 9, the “Plant response rating, Velvetleaf” value (velvetleaf; [2]) was 0 and the “Velvetleaf plant response rating” value (velvetleaf; [3]) was 5. The “Plant response rating, Velvetleaf” value (velvetleaf; [4]) was 0, the “Plant response rating, Velvetleaf” value (velvetleaf; [5]) was 2 and the “Velvetleaf plant response rating” value (velvetleaf; [6]) was 6. For the same compound, the “Velvetleaf plant response rating” value (velvetleaf; [7]) was 7, the “Velvetleaf plant response rating” value (velvetleaf; [8]) was 0 and the “Plant response rating, Barnyardgrass” value (bamyardgrass; [9]) was 0. The “Barnyardgrass plant response rating” value (bamyardgrass; [10]) was 0, the “Barnyardgrass plant response rating” value (bamyardgrass; [11]) was 0 and the “Plant response rating, Barnyardgrass” value (bamyardgrass; [12]) was 0. The “Plant response rating, Corn” value (corn; [1]) was 0, the “Plant response rating, Corn” value (corn; [2]) was 0 and the “Corn plant response rating” value (corn; [3]) was 0. For the same compound, the “Plant response rating, Corn” value (corn; [4]) was 0, the “Plant response rating, Corn” value (corn; [5]) was 0 and the “Corn plant response rating” value (corn; [6]) was 0. The “Corn plant response rating” value (corn; [7]) was 8, the “Corn plant response rating” value (corn; [8]) was 0 and the “Plant response rating, Soybean” value (soybean; [2]) was 4. For the same compound, the “Soybean plant response rating” value (soybean; [3]) was 6, the “Plant response rating, Soybean” value (soybean; [4]) was 0 and the “Plant response rating, Soybean” value (soybean; [5]) was 0. The “Soybean plant response rating” value (soybean; [6]) was 0, the “Soybean plant response rating” value (soybean; [7]) was 0 and the “Soybean plant response rating” value (soybean; [8]) was 3. The “Plant response rating, Nutsedge” value (purple nutsedge; [2]) was 0, the “Nutsedge plant response rating” value (purple nutsedge; [3]) was 0 and the “Plant response rating, Nutsedge” value (purple nutsedge; [4]) was 0. For the same compound, the “Plant response rating, Nutsedge” value (purple nutsedge; [5]) was 0, the “Nutsedge plant response rating” value (purple nutsedge; [6]) was 0 and the “Nutsedge plant response rating” value (purple nutsedge; [7]) was 0. For the same compound, the “Nutsedge plant response rating” value (purple nutsedge; [8]) was 0, the “Plant response rating, Sugarbeets” value (sugar beet; [2]) was 0 and the “Sugarbeets plant response rating” value (sugar beet; [3]) was 0. For the same compound, the “Plant response rating, Sugarbeets” value (sugar beet; [4]) was 0, the “Plant response rating, Sugarbeets” value (sugar beet; [5]) was 4 and the “Sugarbeets plant response rating” value (sugar beet; [6]) was 4. The “Sugarbeets plant response rating” value (sugar beet; [7]) was 9, the “Sugarbeets plant response rating” value (sugar beet; [8]) was 0 and the “Rice plant response rating” value (rice; [10]) was 0. For the same compound, the “Rice plant response rating” value (rice; [11]) was 0, the “Plant response rating, Rice” value (rice; [14]) was 0 and the “Plant response rating, Crabgrass” value (crabgrass; [1]) was 3. The “Plant response rating, Crabgrass” value (crabgrass; [2]) was 9, the “Crabgrass plant response rating” value (crabgrass; [3]) was 9 and the “Plant response rating, Crabgrass” value (crabgrass; [4]) was 9. The “Plant response rating, Crabgrass” value (crabgrass; [5]) was 10, the “Crabgrass plant response rating” value (crabgrass; [6]) was 10 and the “Crabgrass plant response rating” value (crabgrass; [7]) was 10. For the same compound, the “Crabgrass plant response rating” value (crabgrass; [8]) was 2, the “S. Flatsedge plant response rating” value (smallflower flatsedge; [10]) was 0 and the “S. Flatsedge plant response rating” value (smallflower flatsedge; [11]) was 0. The “Plant response rating, S. Flatsedge” value (smallflower flatsedge; [14]) was 0, the “Plant response rating, Blackgrass” value (blackgrass; [1]) was 6 and the “Plant response rating, Blackgrass” value (blackgrass; [2]) was 9. For the same compound, the “Blackgrass plant response rating” value (blackgrass; [3]) was 9, the “Plant response rating, Blackgrass” value (blackgrass; [4]) was 3 and the “Plant response rating, Blackgrass” value (blackgrass; [5]) was 8. For the same compound, the “Blackgrass plant response rating” value (blackgrass; [13]) was 8, the “Blackgrass plant response rating” value (blackgrass; [7]) was 10 and the “Blackgrass plant response rating” value (blackgrass; [8]) was 0.
